Structures can show the parent of a compound that is named as a salt.
Experiments:
[1] = Solubility in boiling acetone (amount of acetone needed to dissolve 1 g); type: physicochemical; details: per 1 g substance
[2] = Stability against degradation when dissolved in hot mixture of solvents and extracted; type: physicochemical; details: salt dissolved in hot mixture of solvents and extracted; compared with purification via HCl salt

amount of acetone needed to dissolve 1 g [1] [mL]	stability against degradation [2]	SMILES
6	more stable against degradation	CCCCC1=NC2(CCCC2)C(=O)N1Cc1ccc(-c2ccccc2-c2nnn[nH]2)cc1 [irbesartan HBr, hydrobromide acid addition salt of 2-n-butyl-3-[[2′-(tetrazol-5-yl)biphenyl-4-yl]methyl]-1.3-diazaspiro[4.4]non-1-en-4-one]
15		CCCCC1=NC2(CCCC2)C(=O)N1Cc1ccc(-c2ccccc2-c2nnn[nH]2)cc1 [irbesartan HCl]
100		CCCCC1=NC2(CCCC2)C(=O)N1Cc1ccc(-c2ccccc2-c2nnn[nH]2)cc1 [irbesartan, 2-n-butyl-3-[[2′-(tetrazol-5-yl)biphenyl-4-yl]methyl]-1.3-diazaspiro[4.4]non-1-en-4-one]
